Results reported in patent US7563595B2 (University of South Florida, priority 2002, dated 2009).

What was measured:
Type II α7-nAChRs = settings: cited from earlier work
α7-2-nAChRs = α7-2-nAChRs (Rattus norvegicus, UniProt Q05941, INS117GCQLHFDQDLQNMLLREACAQAGEDLRVS); experiment: Two-electrode voltage-clamp of Xenopus oocytes injected with α7-2 cRNA
α7-1-nAChRs = α7-1-nAChRs (Rattus norvegicus, UniProt Q05941); experiment: Two-electrode voltage-clamp of Xenopus oocytes injected with α7-1 cRNA

## α-bungarotoxin [αBgt]
Type II α7-nAChRs
  block by αBgt: > 90%
  time of toxin washout within which inhibition is reversed: ≤ 5 min
α7-2-nAChRs
  block by αBgt: > 90%
  effect on transient and sustained components of the ACh-evoked current: abolished
  inhibition of peak ACh-evoked current: 93±3%
  reversal of αBgt inhibition after washout: recovered to near control levels
  time of toxin washout within which inhibition is reversed: ≤ 5 min
α7-1-nAChRs
  reversal of αBgt block after washout: did not appreciably reverse
